Assay results: ChEMBL document CHEMBL2016442, “Structure-activity studies of some berberine analogs as inhibitors of Toxoplasma gondii” (Bioorg Med Chem Lett, 2012)

How the values were obtained:
[1] = Cytotoxicity against human fibroblasts assessed as cell viability by microplate reader; type: cell-based, Fibroblast; conditions: read-out: TD50 (the source's name)
[2] = Therapeutic index, ratio of TD50 for human fibroblast cell to ID 50 for Toxoplasma gondii ATCC 50839; type: cell-based; conditions: human fibroblast cells, read-out: TI
[3] = tested on: Toxoplasma gondii; assay: Antiparasitic activity against Toxoplasma gondii ATCC 50839 infected in human fibroblasts assessed as inhibition of replication of tachyzoites after 4 days by bacterial beta-galactosidase assay; type: functional; conditions: ATCC 50839, 96 h, read-out: ID50 (the source's name)
[4] = tested on: Toxoplasma gondii; assay: Ratio of trimethoprim ID50 to compound ID50 for Toxoplasma gondii ATCC 50839; type: functional

SMILES | CC50 [1] | selectivity ratio [2] | IC50 [3] | Ratio [4]
COc1ccc2c(c1OC)C(C)N1CCc3cc4c(cc3C1=C2)OCO4 (stereo not given) | 12 µM | 3 | 4.2 µM | 
COc1ccc2c(c1OC)CN1CCc3cc4c(cc3[C@@H]1C2)OCO4 [CANADINE] | 210 µM | 24 | 8.7 µM | 
COc1ccc2cc3[n+](cc2c1OC(C)=O)CCc1cc2c(cc1-3)OCO2 | 45 µM | 600 | 0.075 µM | 
CCCCCC(=O)Oc1c(OC)ccc2cc3[n+](cc12)CCc1cc2c(cc1-3)OCO2 | 145 µM | 4000 | 0.036 µM | 
COc1ccc2cc3n(c(=O)c2c1OC)CCc1cc2c(cc1-3)OCO2 [OXYBERBERINE] | 97 µM | 8 | 12 µM | 
COc1ccc2cc3[n+](cc2c1O)CCc1cc2c(cc1-3)OCO2 [BERBERRUBINE] | 81 µM | 1300 | 0.06 µM | 
COc1ccc2c(c1OC)CN1CCc3cc4c(cc3C1=C2)OCO4 [DIHYDROBERBERINE] | 41 µM | 63 | 0.65 µM | 
CCCC(=O)Oc1c(OC)ccc2cc3[n+](cc12)CCc1cc2c(cc1-3)OCO2 | 135 µM | 2000 | 0.068 µM | 
CCOc1c(OC)ccc2cc3[n+](cc12)CCc1cc2c(cc1-3)OCO2 | 9.6 µM | 12 | 0.83 µM | 
CCCCCOc1c(OC)ccc2cc3[n+](cc12)CCc1cc2c(cc1-3)OCO2 | 5.9 µM | 3 | 1.8 µM | 
COc1cc(Cc2cnc(N)nc2N)cc(OC)c1OC [TRIMETHOPRIM] | > 500 µM | > 3 | 15 µM | 
CCCCCCCOc1c(OC)ccc2cc3[n+](cc12)CCc1cc2c(cc1-3)OCO2 | 1.1 µM | 5.5 | 0.2 µM | 
COc1ccc2cc3[n+](cc2c1OC)CCc1cc2c(cc1-3)OCO2 [BERBERINE] | 0.85 µM | 1.5 | 0.58 µM | 30
